Measured values: US20180371408A1, “CELL CULTURES AND METHODS OF USE” (priority 2017, published 2018)
Where two headings read alike, the source gives them in different places.

Key:
[1] = system: testicular cell co-culture (C18-4, TM4, TM3); assay: High-content image analysis of nuclear morphology and cell number; format: cell-based, mouse
Method: (§1) BrdU incorporation, cell fixation, BrdU, and DNA staining followed the previously published protocol (Liang, et al., 2017b). the determination of DNA damage responses and cytoskeleton analysis was conducted after cell fixation. The cells were then permeabilized by a 0.1% Triton X-100 in PBS, and then incubated with a mouse-anti phosphor-histone H2AX (Ser139) (γ-H2AX) overnight at 4° C. […] Finally, prior to acquiring the images, the cells were stained with Alexa Fluor 488 Phallodin for 30 minutes to stain the F-actin (Liang, et al., 2017)
Multi-channel images were then automatically acquired using an Arrayscan™ VTI HCS reader (Thermo Scientific, MA) with the HCS Studio 2.0 Target Activation BioApplication module. Forty-nine fields per well were acquired at 20× and 40× magnification using a Hamamatsu ROCA-ER digital camera in combination with a 0.63× coupler and Carl Zeiss microscope optics in auto-focus mode. Image smoothing was conducted in order to reduce object fragmentation prior to the primary object identification that takes place in the first channel. Channel one (Ch1) applied the BGRFR 386_23 for Hoechst 33342 that was used for auto-focus, object identification, and segmentation. The border objects were then excluded. Channel two (Ch2) applied applied the BGRFR 549_15, which identified the BrdU staining and BGRFR 485_20 to identify the F-actin staining. BGRFR 650_13 was applied in Channel three (Ch3) and identified the γ-H2AX staining.
(§2) Multi-Channel images were analyzed using HCS Studio™2.0 TargetActivation BioApplication. Multiple parameters of nuclei were characterized in HCA, including nuclei number, nuclear area, shape, and total DNA intensity. Nuclear shape measurements included P2A, a ratio of the nuclear perimeter squared to 4it*nucleus area (perimeter^2/4π*enuclear area) to evaluate nuclear smoothness, and LWR, a ratio of the nuclear length to width, to measure nuclear roundness. For a fairly round and smooth object, the values for P2A and LWR are around 1.0. Total intensity was defined as total pixel intensity within a cell in the respective channel. The total intensities of BrdU, γ-H2AX, and F-actin of the individual cells were also quantified. With forty-nine 20× images acquired from each well, at least 1,000 cells were analyzed per well, and single-cell based data were extracted for further analysis. The experiments were performed with at least four biological replicates and repeated twice.
(§3) Data were presented as mean±standard deviation (SD).

[2] = NR dye uptake assay, co-cultures treated with BPA and analogs (Example 2); details: mouse
Method: (§4) The testicular cell co-culture model was established as reported in Example 1 Briefly, mouse spermatogonial cell line C18-4 was established via germ cells isolated from the testes of 6 day old Balb/c mice. […] Mouse Leydig (TM3) and Sertoli (TM4) cell lines were purchased from ATCC, and these cells were isolated from prepubertal mouse gonads. C18-4 cells were maintained in DMEM composed of 5% FBS, and 100 U/ml streptomycin and penicillin in a 33° C., 5% CO2 humidified environment in a sub-confluent condition, and were passaged every 3-4 days TM3 and TM4 cells were cultured in DME/F12 composed of 1.25% FBS, 2.5% horse serum, and 100 U/ml streptomycin and penicillin at 37° C., 5% CO2 in a sub-confluent condition, and were passaged every 2-3 days. When the cells reached 70-80% confluence, a total of 1.5×10^4 cells per well were inoculated into a 96-well plate. […] The co-cultures were maintained in DMEM composed of 2.5% Nu-serum, and 100 U/ml streptomycin and penicillin in a 33° C., 5% CO2 humidified environment.
(§5) Cell viability was determined through the Neutral Red uptake assay, which is based on the ability of viable cells to incorporate NR dye into their lysosomes, while the dye is not retained if the cell dies (Repetto et al., 2008). […] The vehicle controls were set as the co-cultures treated with the vehicle (0.05% DMSO) After the treatments, the culture medium was replaced by fresh medium containing NR (50 μg/ml). After a 3 h incubation period, the co-cultures were washed with phosphate buffered saline (PBS), and the NR dye was eluted with 100 μl of a 0.5% acetic acid/50% ethanol solution. The plate was then gently shaken, and absorbance values were measured at 540 nm with a Synergy HT microplate reader (BioTek, VT). Cell viability was presented as a percentage of the mean of vehicle controls after subtracting background readings.
(§6) The data obtained from the HCS Studio·8 2.0 TargetActivation BioApplication, CellProfiler and CellProfiler Analyst were exported and further analyzed using the JMP statistical analysis package (SAS Institute, NC). To remove cell clumps, nuclei with areas larger than […] were excluded. […] For intra-plate normalization, data were normalized to the overall scaling factors, which was the mean of medians of the vehicle controls in each plate. The single cell-based data were averaged for the well-based condition. BrdU-positive cells were set by the total intensity of BrdU in the control at over 25,000 pixels. γ-H2AX positive cells were set by the total intensity of γ-H2AX in the control at over 120,000 pixels. The median lethal concentrations (LC50) were calculated using a nonlinear regression curve fit on GraphPad Prism 5 (San Diego, Calif.). To examine the correlation between the cytoskeleton and DNA damage responses in multinucleated cells, the Spearman correlation analysis was conducted between the total intensity of F-actin and γ-H2AX for 24, 48, and 72 h using cell-based data. Data were presented as mean±standard deviation (SD). Statistical significance was determined using one-way ANOVA followed by Tukey-Kramer all pairs comparison. The p-value less than 0.05 denoted a significant difference compared to the vehicle control (*).

[3] = system: testicular cell co-culture (C18-4, TM4, TM3); assay: as above
Method: as §4, §5, §6

[4] = system: human breast cancer cells; details: cited from earlier work
[5] = system: pregnancies and sexual development; details: rats, doses of ˜80 and ˜280 mg/kg; cited from earlier work
reproductive system = details: based on ToxCast database and literature search; cited from earlier work
[6] = system: testicular co-culture: spermatogonial cells (C18-4), Sertoli cells (TM4), Leydig cells (TM3); assay: cells; details: Mus musculus
[7] = system: testicular cell co-culture (C18-4, TM4, TM3); assay: BrdU incorporation (DNA synthesis) and cell cycle HCA; format: cell-based, mouse
Method: as §1, §2, §3

HepG2 cell line = details: cited from earlier work

SMILES | doses with significant increase in nuclear area ([1]; 24, 48, and 72 h) [µM] | doses significantly reducing cell number ([1]; 24 h) [µM] | CC50 at 72 h [2] [µM] | doses significantly decreasing cell viability ([3]; 24 h) [µM] | effect on pregnancies and sexual development [5] | IC50 ([6]; 24 h) [µM] | IC50 ([6]; 48 h) [µM] | doses reducing cell number ([1]; 24, 48, and 72 h) [µM] | doses significantly increasing P2A ([1]; 24 and 48 h) [µM] | doses significantly reducing LWR (nuclear roundness) ([1]; 72 h) [µM] | doses significantly reducing P2A (nuclear smoothness) ([1]; 72 h) [µM] | doses significantly decreasing cell viability ([3]; 24, 48, and 72 h) [µM] | other results
CC(C)(c1ccc(O)cc1)c1ccc(O)cc1 [BPA, 4,4′-(propane-2,2-diyl) diphenol] | 100 | 100 | 150 | ≥ 200 | did not alter these reproductive endpoints | 210 | 186 |  |  |  |  |  | doses significantly reducing LWR (nuclear roundness) ([1]; 48 and 72 h): ≥ 25 µM; doses significantly reducing LWR (nuclear roundness) ([1]; 24 h): ≥ 50 µM; doses significantly reducing P2A (nuclear smoothness) ([1]; 24 h): 50 µM; doses with significant decrease in nuclear area ([1]; 24 h): ≥ 10 µM; dose able to induce γ-H2AX [4]: 10 nM; In vivo Reproductive Toxicity (reproductive system): +; doses with significant decrease in BrdU-positive cells ([7]; 24 and 48 h): 100 µM; dose not able to induce γ-H2AX (HepG2 cell line): > 100 µM
Oc1ccc(C(c2ccc(O)cc2)(C(F)(F)F)C(F)(F)F)cc1 [BPAF, 4,4′-(Hexafluoroisopropylidene)diphenol] |  |  | 8.5 |  | impaired pregnancies and sexual development | 78 | 50 | ≥ 2.5 | 5 | 15 | 15 | ≥ 5 | doses significantly increasing LWR ([1]; 24 and 48 h): 5 µM; doses with significant increase in nuclear area ([1]; 24 h): 10 µM; toxicity ranking among BPA and analogs ([3]; co-culture model, followed by TBBPA, BPA, and BPS): highest toxicity; HCA-based cell cycle analysis, in words [7]: significantly induced G2/M phase arrest; dose inducing BrdU-positive cells ([7]; 72 h): 10 µM; doses with significant decrease in BrdU-positive cells ([7]; 72 h): 15 µM
O=S(=O)(c1ccc(O)cc1)c1ccc(O)cc1 [BPS, 4,4′-Sulfonyldiphenol] |  | 100 |  | ≥ 400 |  | 574 | 341 |  |  |  |  |  | doses with significant increase in nuclear area ([1]; 72 h): 100 µM; doses with significant decrease in BrdU-positive cells ([7]; 24 h): 100 µM
CC(C)(c1cc(Br)c(O)c(Br)c1)c1cc(Br)c(O)c(Br)c1 [TBBPA, 2,2′,6,6′-Tetrabromo-4,4′-isopropylidenediphenol] | 15 |  | 16.8 |  |  | 70 | 58 | ≥ 10 | 15 | 15 | 15 | ≥ 25 | IC50 ([6]; read-out: IC50 values (mostly)): ≤ 100 µM; doses with significant decrease in BrdU-positive cells ([7]; 48 and 72 h): 15 µM
